Reference: article PMC9081605, “A High-Throughput Toxicity Screen of 42 Per- and Polyfluoroalkyl Substances (PFAS) and Functional Assessment of Migration and Gene Expression in Human Placental Trophoblast Cells” (Frontiers in Toxicology, 2022)
“Also recorded” adds a separate entry of the source.

Tested on: JEG-3 cells
Assay: Gene expression, custom NanoString code set of 46 genes
Type: cell-based, human
Procedure: JEG-3 cells were seeded at a density of 80,000 cells per well in six well plates and allowed to adhere overnight (24 h). The following day, media was removed and replaced with exposure media, then returned to the incubator for 24 h. The test compounds included non-cytotoxic concentrations of PFOA (0, 1, and 100 µM) and GenX (0, 3, 300 µM). These test compounds were selected a priori due to their high public health relevance. Each 6 well plate contained the three concentrations for either PFOA or GenX, with each condition in technical duplicate. Plates containing these PFOA or GenX exposure conditions were replicated three times (N = 3). After 24 h, exposure media was aspirated and cells were washed in ice cold 1xPBS, which was then aspirated. Each well received 500 µl of TRIzol reagent (Thermo Fisher Scientific, MA, United States) and cells were harvested in the TRIzol using a cell scraper. Technical duplicate wells within a plate were combined to generate a single sample of ∼1,000 µl. RNA was isolated from the resulting cellular homogenate using RNeasy Mini Kits (Qiagen, Hilden, Germany). Isolated RNA quality was validated and concentration determined using a NanoDrop 2000 (Thermo Fisher Scientific, MA, United States). 100 ng of mRNA from each sample was then analyzed using a custom gene expression code set (NanoString, Seattle, WA, United States). The custom code set included 46 genes selected for their downstream involvement in placental development (e.g., WNT4), endocrine signaling (e.g., CYP19A1), fetal growth/nutrient sensing (e.g., IGF2), inflammation (e.g., IL6), oxidative stress (e.g., SOD1, GPX1), and xenobiotic transport/metabolism (e.g., ABCG2, MRP3).
Gene expression data were quantified using the nCounter Digital Analyzer (NanoString, Seattle, WA, United States) and raw and adjusted counts were generated with nSolver (v4.0) software (NanoString, Seattle, WA, United States). Data were adjusted utilizing the manufacturer’s positive and negative experimental control probes, as well as housekeeping genes (ACTA2, ACTB, B2M, LDHA, RNA18S5, and ROLYR2L). All samples passed nSolver’s initial QA/QC controls and replicates were very well correlated with R ^2 values greater than 0.99. Adjusted data were then imported into Partek v7.0 (St. Louis, MO, United States), log2 transformed and quantile normalized for further QA/QC and statistical analyses. Genes with mRNA counts below the detection threshold of 20 were removed due to suboptimal probe hybridization (N = 2 genes for GenX; GH2 and IGFBP5). Fold change values were analyzed by ANOVA with post hoc false discovery rate adjustment (FDR) of p < 0.1. Normalized gene expression values were visualized using pheatmap with Euclidean clustering of genes and concentration groups ([Kolde and Kolde, 2015]).

O=C(O)C(F)(F)C(F)(F)C(F)(F)C(F)(F)C(F)(F)C(F)(F)C(F)(F)F [Perfluorooctanoic acid]
11BHSD2 gene expression, fold change over untreated control (1 µM, 24 h): -1.06 | 17BHSD1 gene expression, fold change over untreated control (1 µM, 24 h): -1.02 | ABCG2 gene expression, fold change over untreated control (1 µM, 24 h): -1.07 | AHR gene expression, fold change over untreated control (1 µM, 24 h): -1.09 | AHRR gene expression, fold change over untreated control (1 µM, 24 h): significantly altered | CAT gene expression, fold change over untreated control (1 µM, 24 h): 1.02 | CGB5 gene expression, fold change over untreated control (1 µM, 24 h): 1.00 | COX2 gene expression, fold change over untreated control (1 µM, 24 h): -1.11 | CTNNB1 gene expression, fold change over untreated control (1 µM, 24 h): 1.00 | CYP1A1 gene expression, fold change over untreated control (1 µM, 24 h): 1.05 | CYP3A5 gene expression, fold change over untreated control (1 µM, 24 h): 1.28 | CYP3A7 gene expression, fold change over untreated control (1 µM, 24 h): 1.15 | CYP19A1 gene expression, fold change over untreated control (1 µM, 24 h): -1.05 | EGFR gene expression, fold change over untreated control (1 µM, 24 h): 1.07 | ENG gene expression, fold change over untreated control (1 µM, 24 h): 1.02 | ESRRA gene expression, fold change over untreated control (1 µM, 24 h): 1.00 | ESRRG gene expression, fold change over untreated control (1 µM, 24 h): -1.04 | GH2 gene expression, fold change over untreated control (1 µM, 24 h): 1.02 | GHR gene expression, fold change over untreated control (1 µM, 24 h): 1.00 | GPER1 gene expression, fold change over untreated control (1 µM, 24 h): 1.02 | GPX1 gene expression, fold change over untreated control (1 µM, 24 h): 1.00 | HIF1A gene expression, fold change over untreated control (1 µM, 24 h): 1.00 | IGF2 gene expression, fold change over untreated control (1 µM, 24 h): 1.00 | IGFBP5 gene expression, fold change over untreated control (1 µM, 24 h): -1.13 | IGFR1 gene expression, fold change over untreated control (1 µM, 24 h): 1.03 | IGFR2 gene expression, fold change over untreated control (1 µM, 24 h): 1.05 | IL6 gene expression, fold change over untreated control (1 µM, 24 h): -1.05 | MRP1 gene expression, fold change over untreated control (1 µM, 24 h): -1.03 | MRP2 gene expression, fold change over untreated control (1 µM, 24 h): 1.09 | MRP3 gene expression, fold change over untreated control (1 µM, 24 h): -1.08 | NFKB1 gene expression, fold change over untreated control (1 µM, 24 h): 1.00 | NFKB2 gene expression, fold change over untreated control (1 µM, 24 h): 1.00 | NR3C1 gene expression, fold change over untreated control (1 µM, 24 h): 1.09 | PGF gene expression, fold change over untreated control (1 µM, 24 h): 1.00 | PMM1 gene expression, fold change over untreated control (1 µM, 24 h): -1.03 | ROLYR2L gene expression, fold change over untreated control (1 µM, 24 h): 1.00 | SLC2A1 gene expression, fold change over untreated control (1 µM, 24 h): -1.02 | SOD1 gene expression, fold change over untreated control (1 µM, 24 h): 1.00 | TGFB1 gene expression, fold change over untreated control (1 µM, 24 h): 1.00 | VEGFA gene expression, fold change over untreated control (1 µM, 24 h): 1.00 | VEGFB gene expression, fold change over untreated control (1 µM, 24 h): -1.00 | WNT4 gene expression, fold change over untreated control (1 µM, 24 h): 1.25 | WNT6 gene expression, fold change over untreated control (1 µM, 24 h): -1.04 | WNT7B gene expression, fold change over untreated control (1 µM, 24 h): 1.06 | mTOR gene expression, fold change over untreated control (1 µM, 24 h): 1.00 | 11BHSD2 gene expression, fold change over untreated control (100 µM, 24 h): -1.03 | AHR gene expression, fold change over untreated control (100 µM, 24 h): 1.08 | AHRR gene expression, fold change over untreated control (100 µM, 24 h): 1.00 | CAT gene expression, fold change over untreated control (100 µM, 24 h): -1.06 | CGB5 gene expression, fold change over untreated control (100 µM, 24 h): -1.15 | COX2 gene expression, fold change over untreated control (100 µM, 24 h): 1.03 | CTNNB1 gene expression, fold change over untreated control (100 µM, 24 h): 1.00 | CYP1A1 gene expression, fold change over untreated control (100 µM, 24 h): 1.18 | CYP2E1 gene expression, fold change over untreated control (100 µM, 24 h): 1.00 | CYP3A5 gene expression, fold change over untreated control (100 µM, 24 h): -1.18 | CYP3A7 gene expression, fold change over untreated control (100 µM, 24 h): -1.22 | CYP19A1 gene expression, fold change over untreated control (100 µM, 24 h): 1.00 | EGFR gene expression, fold change over untreated control (100 µM, 24 h): -1.07 | ENG gene expression, fold change over untreated control (100 µM, 24 h): -1.19 | ESRRA gene expression, fold change over untreated control (100 µM, 24 h): 1.00 | ESRRG gene expression, fold change over untreated control (100 µM, 24 h): -1.16 | GH2 gene expression, fold change over untreated control (100 µM, 24 h): 1.12 | GHR gene expression, fold change over untreated control (100 µM, 24 h): 1.15 | GPER1 gene expression, fold change over untreated control (100 µM, 24 h): -1.05 | GPX1 gene expression, fold change over untreated control (100 µM, 24 h): non-significant trend of decreased expression | HIF1A gene expression, fold change over untreated control (100 µM, 24 h): 1.00 | IGF2 gene expression, fold change over untreated control (100 µM, 24 h): -1.00 | IGFBP5 gene expression, fold change over untreated control (100 µM, 24 h): -1.02 | IGFR1 gene expression, fold change over untreated control (100 µM, 24 h): 1.08 | IGFR2 gene expression, fold change over untreated control (100 µM, 24 h): significantly altered | IL6 gene expression, fold change over untreated control (100 µM, 24 h): 1.10 | MRP1 gene expression, fold change over untreated control (100 µM, 24 h): -1.06 | MRP2 gene expression, fold change over untreated control (100 µM, 24 h): -1.03 | MRP3 gene expression, fold change over untreated control (100 µM, 24 h): -1.12 | NFKB1 gene expression, fold change over untreated control (100 µM, 24 h): 1.03 | NFKB2 gene expression, fold change over untreated control (100 µM, 24 h): 1.00 | NR3C1 gene expression, fold change over untreated control (100 µM, 24 h): 1.00 | PGF gene expression, fold change over untreated control (100 µM, 24 h): -1.00 | PMM1 gene expression, fold change over untreated control (100 µM, 24 h): 1.07 | ROLYR2L gene expression, fold change over untreated control (100 µM, 24 h): 1.00 | SLC2A1 gene expression, fold change over untreated control (100 µM, 24 h): -1.11 | SOD1 gene expression, fold change over untreated control (100 µM, 24 h): 1.00 | TGFB1 gene expression, fold change over untreated control (100 µM, 24 h): -1.18 | VEGFA gene expression, fold change over untreated control (100 µM, 24 h): 1.08 | VEGFB gene expression, fold change over untreated control (100 µM, 24 h): -1.04 | WNT4 gene expression, fold change over untreated control (100 µM, 24 h): significantly altered | WNT6 gene expression, fold change over untreated control (100 µM, 24 h): -1.02 | WNT7B gene expression, fold change over untreated control (100 µM, 24 h): 1.06 | mTOR gene expression, fold change over untreated control (100 µM, 24 h): 1.00 | 17BHSD1 gene expression, fold change over untreated control (100 µM, 24 h, listed as PFOA): significantly altered; also recorded: significant increase | ABCG2 gene expression, fold change over untreated control (100 µM, 24 h, listed as PFOA): upregulation; also recorded: significantly altered | lowest concentration inducing significant dysregulated expression of placental genes (after 24 h of exposure): 1 µM
